The values that follow come from patent US20050064507A1, “Determining kinase specificity” (priority 2003, published 2005).

The test system of one experiment is pPKC Ab. Nature of the experiment: pPKC Ab binding to peptides phosphorylated in vitro by PKC-theta. Particulars: for pPKC Ab binding to peptide: before/after phosphorylation by PKC-theta. As for the experimental part:
Synthetic peptides chosen from those shown in Table 4 were subjected to phosphorylation by PKC-theta, Assay conditions were similar to those described herein, except that the phosphorylation reaction was for 30 minutes at 30° C. and then overnight at 4° C. The reaction mixture was applied to HB avidin-coated plates, the plates washed, and then pPKC Ab binding assayed.

For a further experiment, the target named is T1, PKC-delta (Homo sapiens, UniProt Q05655).
T1 construct: purchased Calbiochem
T1 sequence (Q05655 whole entry): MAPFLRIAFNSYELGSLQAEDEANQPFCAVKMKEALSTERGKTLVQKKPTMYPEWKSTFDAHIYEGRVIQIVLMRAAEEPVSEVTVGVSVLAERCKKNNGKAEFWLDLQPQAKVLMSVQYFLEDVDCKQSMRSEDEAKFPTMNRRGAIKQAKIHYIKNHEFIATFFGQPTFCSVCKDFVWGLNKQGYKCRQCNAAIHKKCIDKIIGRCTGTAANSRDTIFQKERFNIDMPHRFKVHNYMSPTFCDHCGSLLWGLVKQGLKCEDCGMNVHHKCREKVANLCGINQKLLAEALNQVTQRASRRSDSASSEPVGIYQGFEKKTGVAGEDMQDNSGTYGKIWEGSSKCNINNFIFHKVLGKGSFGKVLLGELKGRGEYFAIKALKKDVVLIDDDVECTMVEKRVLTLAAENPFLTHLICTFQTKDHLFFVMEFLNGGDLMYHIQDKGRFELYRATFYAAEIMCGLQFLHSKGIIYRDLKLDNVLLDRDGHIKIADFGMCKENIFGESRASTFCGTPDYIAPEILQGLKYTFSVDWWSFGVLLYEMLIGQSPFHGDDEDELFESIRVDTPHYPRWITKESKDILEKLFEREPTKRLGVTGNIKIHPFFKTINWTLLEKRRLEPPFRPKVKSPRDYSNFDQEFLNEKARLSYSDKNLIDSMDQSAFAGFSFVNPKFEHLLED
Nature of the experiment: In vitro kinase assay: peptide phosphorylation by PKC-delta. Format: biochemical. The following applies: peptide concentration of 10 nM; percentage of phosphorylation of the best validating peptide substrate. The text has this: One approach to validating a substrate identification method can involve, for example, comparison of substrate sites predicted by the method with in vitro phosphorylation results obtained using the selected kinase and peptides of known sequences. Such a systematic validation has been performed for the methods described herein. For example, a panel of seventy five peptides was synthesized, the phosphorylation observed for each peptide was experimentally measured, the amount of phosphorylation was quantified, the phosphorylation results for each peptide were normalized to the phosphorylation observed with the best substrate tested and these amounts were compared with predictions made according to the invention and according to the procedures provided by others. These peptides are referred to herein as proteomic peptides because their sequences are chosen from proteins in the human proteome; unlike the test sets employed herein, these peptides include no degenerate positions
Table 2 compares the present predictions with actual measurements of phosphorylation on validating peptides. The method of synthesis of the validating peptides was as described elsewhere in the application, and each included an N-terminal linker sequence of biotinylated-Lys-dansylated-Lys-Pro-Pro-Gly (SEQ ID NO:231). The length of the remaining “core” of the validating peptides ranged from 12-21 residues with one to five S/T residues. In vitro phosphorylation of these validating peptides was measured in the manner described herein. […] In vitro phosphorylation results for the validating peptides were expressed as normalized values, namely as a percentage of phosphorylation of the best validating peptide substrate in the group.
(§1) The conditions of the kinase assay and the amount of active kinase used varied with the kinase and with the accuracy needed. For a typical experiment, 5-20 ng of kinase was used per well and each peptide pool was assayed in duplicate wells. Note that the absolute amount of kinase used was not usually a critical parameter, because the desired information related to specificity of the kinase not its absolute activity, and robustness of the assay depends on comparisons of the same amount of kinase on different peptides. The combination of kinase concentration and assay duration was modified to assure that the stoichiometry of peptide phosphorylation never exceeded 5%. The choice of kinase buffer depended on the kinase being analyzed. For studies of PKC, 100 mM HEPES, 0.05% Triton-X100, 1 mM CaCl2, 20 mM MgCl2, 0.2 mg/ml phosphatidyl serine (Avanti Polar Lipids), PMA 100 ng/ml was typically used. The lipid stock was prepared by transferring 3 mg phosphatidyl serine into iced mixture of 450 μl water plus 50 μl of 10% Triton-X100, sonicating 10 times on ice for 1 sec each.
(§2) The kinase reaction mixture was assembled by sequential addition to a tube held on ice of: 5 μl peptide (100 μM for final concentration of 10 μM), 15 μl of kinase (typically 5 ng/well, in appropriate kinase buffer), 30 μl of ATP (1 uCi/well of ^32P-gamma ATP in a stock of 167 μM cold ATP in the kinase buffer; for final concentration for 100 μM ATP). The mixture was rapidly warmed to desired reaction temperature (30° C. for PKC) and incubated for the desired duration (usually 10 minutes). The kinase assay was terminated by transfer to 4° C. water batch, and rapid addition of an equal volume (50 μl) of stop solution [0.1M ATP+0.1M EDTA in water, pH 8].
The peptides were then captured from the reaction mixture by transfer to a Reacti-Bind Streptavidin High Binding Capacity Coated Plates (HBC) (Pierce Biotechnology) as follows. The HBC plates were pre-rinsed three times with PBS/Tween PBS/Tween20 0.05% (PBS/Tween). […]

A further experiment deals with T2, PKC-theta (Homo sapiens, UniProt Q04759).
T2 construct: His-tag; made in house; host or cells: baculovirus-infected Sf9 cells
T2 sequence (Q04759 whole entry): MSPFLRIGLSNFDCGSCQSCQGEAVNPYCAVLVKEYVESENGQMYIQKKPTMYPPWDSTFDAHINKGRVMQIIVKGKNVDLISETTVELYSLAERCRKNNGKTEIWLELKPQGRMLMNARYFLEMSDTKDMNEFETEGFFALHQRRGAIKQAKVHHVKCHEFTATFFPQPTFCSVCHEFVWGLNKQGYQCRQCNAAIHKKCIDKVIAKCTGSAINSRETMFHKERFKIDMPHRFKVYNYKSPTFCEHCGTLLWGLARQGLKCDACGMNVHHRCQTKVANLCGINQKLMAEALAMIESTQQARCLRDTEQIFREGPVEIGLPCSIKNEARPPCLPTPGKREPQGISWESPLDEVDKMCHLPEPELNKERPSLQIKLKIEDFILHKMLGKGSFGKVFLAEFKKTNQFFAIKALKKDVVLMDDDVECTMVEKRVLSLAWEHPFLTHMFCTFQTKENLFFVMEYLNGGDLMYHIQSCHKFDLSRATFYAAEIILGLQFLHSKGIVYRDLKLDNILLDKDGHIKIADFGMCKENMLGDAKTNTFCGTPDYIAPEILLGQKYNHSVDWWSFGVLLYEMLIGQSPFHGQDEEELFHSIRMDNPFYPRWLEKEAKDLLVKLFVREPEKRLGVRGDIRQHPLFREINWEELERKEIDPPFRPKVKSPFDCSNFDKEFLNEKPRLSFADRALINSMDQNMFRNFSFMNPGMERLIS
The experiment can be described thus: In vitro kinase assay: peptide phosphorylation by PKC-theta. Format: biochemical. Particulars: Table 8.
Excerpt: A second strategy for validation of the PSSM derived from the methods described herein is to identify sequences represented in the human proteome that have low percentiles derived from the PSSM, to synthesize peptides that have those sequences, and test the efficiency of phosphorylation of those peptides by the kinase of interest. […] The results are shown for individual peptides (FIG. 11, panel A) or for groups of peptides aggregated by percentile prediction (FIG. 11, panel B). As with the testing described above with prospectively chosen peptides, the percentile scores are highly predictive of phosphorylation by the relevant kinase.
An example of the purification procedure used for production of active kinase is as follows. A preparation of PKC-theta was prepared using a Gateway expression construct containing PKC-theta that was expressed in baculovirus, which were used to infect Sf9 cells. The cell pellet from a liter of baculovirus-infected Sf9 cells was resuspended in 20 volumes (60 ml) of extraction buffer (20 mM Na phosphate buffer pH 7.5, 500 mM NaCl, 5 mM pyrophosphate, 10% glycerol, 10 mM imidazole, 1 mM PMSF), sonicated twice for one minute (1 cm tip at 60% power and 50% duty cycle) and cell disruption was verified microscopically. The sample was adjusted to five mM MgCl2 and treated with one U benzonase/ml for an additional 20 minute on ice. The sample was clarified by centrifugation in a JA-20 rotor at 15K for 30 min at 4° C., filtered through a […] filter and applied at 0.5 ml/min to a one ml chelating sepharose column previously charged with nickel and equilibrated with extraction buffer. The column was washed with extraction buffer at one ml/min to baseline and eluted in a 20 ml gradient (20-500 mM imidazole in extraction buffer) into one ml fractions that were analyzed by SDS-PAGE. Fractions with the highest concentration of protein were pooled, were dialyzed twice against one liter of 20 mM Na PO4 pH 7.5, 50 mM NaCl buffer. The kinase pool was dialyzed twice against 20 mM HEPES pH 7.4, 100 mM NaCl, 2 mM EDTA, 5 mM DTT, 0.05% Triton-X-100. After dialysis, the sample was adjusted to 50% glycerol and quick-frozen in a dry ice/ethanol bath.
as §1
as §2, with “8]. […]” for “8].”

In experiment [1] the test system is pPKC antibody. The following applies: cited from earlier work.
For experiment [2], the system named is pPKC antibody. Nature of the experiment: ELISA binding of pPKC antibody to synthesized SHP-1 phosphopeptides. Particulars: for Binding of pPKC antibody: ELISA on phosphopeptide, normalized to the value for the Ser-591 peptide; for binding of pPKC antibody to phosphorylated peptide: ELISA. On the procedure: Tests were conducted to test whether SHP-1 is phosphorylated in vivo at Ser-591, Ser-26 or Ser-300. To do so, a strategy was employed that used a commercially available antibody from Cell Signaling Technology that is referred to as a phospho-PKC motif antibody (designated herein as pPKC Ab). (See U.S. Pat. No. 6,441,140 and Cell Signaling Technology Datasheet for ‘Phospho-(Ser) PKC Substrate Antibody’). […] Such antibodies can be used for detection of unknown proteins that contain phosphorylation sites conforming to the motif to which they bind. For example, phosphorylated proteins can be detected on two-dimensional gels with the pPKC Ab and the identity of these phosphorylated proteins can be confirmed by the observed molecular weight, isoelectric point and other information such as the predictive algorithms provided herein. Similarly, such detected proteins can be enriched by classical biochemical separations, and when sufficiently enriched, can be identified by mass spectrometry (Astoul E et al. 2003. J Biol Chem 278:9267-9275).
Because these studies of SHP-1 were an early precedent-setting study, a rigorous approach was adopted in determining whether pPKC antibody binding included one or more of the three predicted SHP-1 sites. Phosphorylated peptides corresponding to the three best predicted PKC sites were synthesized (Table 7) in microtiter wells using a method of prior art described in U.S. Pat. No. 6,031,074. In addition, phosphorylated peptides corresponding to others sites in SHP-1 that match part of the motif detected by the pPKC antibody were also synthesized. Those phosphorylated peptides were then analyzed for reactivity with the pPKC antibody in an ELISA assay.
Among the phosphorylated peptides corresponding to sites in SHP-1, the best binding of pPKC antibody was detected with the phosphorylated peptide corresponding to Ser-591 (Table 7; […]).

Square brackets hold non-standard residues; d marks the D form. Ends that are not written are not given here. pS = N[C@@H](COP(=O)(O)O)C(=O)O

As to 75 (EEAEHKATKARLADK) [compound 75], in the experiment on pPKC Ab, the “pPKC Ab Signal on peptide without exposure to PKC-theta” value was found to be 0.02. The “pPKC Ab Signal on peptide after exposure to PKC-theta phosphorylation” value with pPKC Ab (30 minutes at 30° C. then overnight at 4° C.) worked out at 0.02. Moreover, the “pPKC Ab Signal amount dependent on PKC phosphorylation” value in the experiment on pPKC Ab (difference after minus without exposure) was determined as 0.00. In addition, the “Measured in vitro phosphorylation by PKC-delta” value in the experiment with PKC-delta amounted to 0%. The “Peptide phosphorylation by PKC-theta” value in the experiment with PKC-theta is listed as 0. Consider 229 (WKN[pS]IRH) [compound 229], for which, in the experiment on pPKC antibody [1], the “binding of pPKC antibody (manufacturer Cell Signaling Technology)” value is “binds”. Turning to 230 (RRP[pS]YRK) [compound 230], in the experiment with pPKC antibody [1], the “binding of pPKC antibody (manufacturer Cell Signaling Technology)” value is on record as “binds”. On to “289 (MKNAHAKA[pS]RTSSKHKE) [compound 289]”, for which the “Binding of pPKC antibody” value with pPKC antibody [2] amounted to 18.

As to “290 (RVILQGRD[pS]NIPGSDYI) [compound 290]”, the “Binding of pPKC antibody” value in the experiment with pPKC antibody [2] is 13.

As to “291 (AHAKASRT[pS]SKHKEDVY) [compound 291]”, the “Binding of pPKC antibody” value with pPKC antibody [2] is 12.

Turning to “292 (KKKLEVLQ[pS]QKGQESEY) [compound 292]”, the “Binding of pPKC antibody” value in the experiment with pPKC antibody [2] was determined as 11.

Take “293 (PSEPGGVL[pS]FLDQINQR) [compound 293]”: in the experiment on pPKC antibody [2], the “Binding of pPKC antibody” value is recorded as 9. Still for that read-out and setting: under “294 (HAKASRTS[pS]KHKEDVYE) [compound 294]” stands 7; under “295 (PWTFLVRE[pS]LSQPGDFV) [compound 295]”, 5. As for “296 (KNQGDFSL[pS]VRVGDQVT) [compound 296]”, in the experiment with pPKC antibody [2], the “Binding of pPKC antibody” value is recorded as 3.

For the substance “297 (PLNCSDPT[pS]ERWYHGHM) [compound 297]”, in the experiment with pPKC antibody [2], the “Binding of pPKC antibody” value was 0. Still for that read-out and setting: next, 298 (ADKEKSKG[pS]LKRK) [compound 298]: 100; “299 (LKGRGVHG[pS]FLARPSRK) [compound 299]”: 54. With “300 (HGSFLARP[pS]RKNQGDFS) [compound 300]”, the “Binding of pPKC antibody” value with pPKC antibody [2] is listed as 39. On to “ADKEKSKG-pS-LKRK---- (ADKEKSKG[pS]LKRK) [SEQ ID NO 298]”, for which the “binding of pPKC antibody to phosphorylated peptide” value (“binding … to phosphorylated peptide” below) with pPKC antibody [2] is “best binding”.

In the case of “HGSFLARP-pS-RKNQGDFS (HGSFLARP[pS]RKNQGDFS) [SEQ ID NO 300]”, the “binding … to phosphorylated peptide” value in the experiment with pPKC antibody [2] is on record as “distinctly lower but readily detectable binding”. With HVRRRRGTFKRSKLRARD [SEQ ID NO 1], the “pPKC Ab binding to peptide” value in the experiment on pPKC Ab is “after phosphorylation but not before”. Take “LKGRGVHG-pS-FLARPSRK (LKGRGVHG[pS]FLARPSRK) [SEQ ID NO 299]”: the “binding … to phosphorylated peptide” value in the experiment with pPKC antibody [2] was “distinctly lower but readily detectable binding”. With LRRRSLRRSNSISKSPGP [SEQ ID NO 121], the “pPKC Ab binding to peptide” value in the experiment with pPKC Ab was “after phosphorylation but not before”.
